# From patent US11117900B2 (Vertex Pharmaceuticals Incorporated, priority 2012, dated 2021)
# Test system: HCT116 colorectal cancer cells
# Assay: Cisplatin sensitization assay (96 h MTS cell viability);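 also: compound concentration needed to lower the IC50 of Cisplatin alone by a set fold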
# Format: cell-based
# Details: Cisplatin sensitization value
# How it was run: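 HCT116 cells were dosed simultaneously with compound and cisplatin as a full matrix of 2-fold serial dilutions from 10 μM top final concentration. Incubation was 96 h at 37° C., 5% CO2, followed by 1 h with MTS reagent for the viability read-out. Sensitization values were binned into +++, ++ and + categories.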
row,Structure (SMILES),Cisplatin Sensitization Assay
1,"Nc1nn2cc(F)cnc2c1C(=O)Nc1cncc(F)c1N1CCN(C(=O)C2CNC2)CC1 [I-N-168, 2-amino-N-(4-(4-(azetidine-3-carbonyl)piperazin-1-yl)-5-fluoropyridin-3-yl)-6-fluoropyrazolo[1,5-a]pyrimidine-3-carboxamide]",+ (Compounds with a Cisplatin sensitization value >0.2 μM but <5 μM are marked with “+.”)
2,"Nc1nn2cc(F)cnc2c1C(=O)Nc1cncc(F)c1N1CCC(S(=O)(=O)N2CCC2)CC1 [I-N-169, 2-amino-N-(4-(4-(azetidin-1-ylsulfonyl)piperidin-1-yl)-5-fluoropyridin-3-yl)-6-fluoropyrazolo[1,5-a]pyrimidine-3-carboxamide]",+++ (Compounds with a Cisplatin sensitization value of <0.02 μM are marked with “+++.”)
3,"Nc1nn2cc(F)cnc2c1C(=O)Nc1cnccc1N1CCC(S(=O)(=O)N2CCOCC2)CC1 [I-N-170, 2-amino-6-fluoro-N-(4-(4-(morpholinosulfonyl)piperidin-1-yl)pyridin-3-yl)pyrazolo[1,5-a]pyrimidine-3-carboxamide]",+++ (Compounds with a Cisplatin sensitization value of <0.02 μM are marked with “+++.”)
4,"CN1CCN(CC2CCN(c3c(F)cncc3NC(=O)c3c(N)nn4cc(F)cnc34)CC2)CC1=O [I-N-171, 2-amino-6-fluoro-N-(5-fluoro-4-(4-((4-methyl-3-oxopiperazin-1-yl)methyl)piperidin-1-yl)pyridin-3-yl)pyrazolo[1,5-a]pyrimidine-3-carboxamide]",+++ (Compounds with a Cisplatin sensitization value of <0.02 μM are marked with “+++.”)
5,"Nc1nn2cc(F)cnc2c1C(=O)Nc1cncc(F)c1N1CCN(C(=O)C2CNCCO2)CC1 (stereo not drawn) [I-N-172, 2-amino-6-fluoro-N-(5-fluoro-4-(4-(morpholine-2-carbonyl)piperazin-1-yl)pyridin-3-yl)pyrazolo[1,5-a]pyrimidine-3-carboxamide]",+++ (Compounds with a Cisplatin sensitization value of <0.02 μM are marked with “+++.”)
6,"CN1CCCCC1C(=O)N1CCN(c2c(F)cncc2NC(=O)c2c(N)nn3cc(F)cnc23)CC1 (stereo not drawn) [I-N-173, 2-amino-6-fluoro-N-(5-fluoro-4-(4-(1-methylpiperidine-2-carbonyl)piperazin-1-yl)pyridin-3-yl)pyrazolo[1,5-a]pyrimidine-3-carboxamide]",+++ (Compounds with a Cisplatin sensitization value of <0.02 μM are marked with “+++.”)
7,"CN1CCOC(C(=O)N2CCN(c3c(F)cncc3NC(=O)c3c(N)nn4cc(F)cnc34)CC2)C1 (stereo not drawn) [I-N-174, 2-amino-6-fluoro-N-(5-fluoro-4-(4-(4-methylmorpholine-2-carbonyl)piperazin-1-yl)pyridin-3-yl)pyrazolo[1,5-a]pyrimidine-3-carboxamide]",+++ (Compounds with a Cisplatin sensitization value of <0.02 μM are marked with “+++.”)
8,"CN1CCC(S(=O)(=O)N2CCN(c3c(F)cncc3NC(=O)c3c(N)nn4cc(F)cnc34)CC2)CC1 [I-N-175, 2-amino-6-fluoro-N-(5-fluoro-4-(4-((1-methylpiperidin-4-yl)sulfonyl)piperazin-1-yl)pyridin-3-yl)pyrazolo[1,5-a]pyrimidine-3-carboxamide]",+++ (Compounds with a Cisplatin sensitization value of <0.02 μM are marked with “+++.”)
9,"Nc1nn2cc(F)cnc2c1C(=O)Nc1cnccc1N1CCN(S(=O)(=O)C2CC2)CC1 [I-N-176, 2-amino-N-(4-(4-(cyclopropylsulfonyl)piperazin-1-yl)pyridin-3-yl)-6-fluoropyrazolo[1,5-a]pyrimidine-3-carboxamide]",+++ (Compounds with a Cisplatin sensitization value of <0.02 μM are marked with “+++.”)
10,"Nc1nn2cc(F)cnc2c1C(=O)Nc1cnccc1N1CCN(S(=O)(=O)C2CCOCC2)CC1 [I-N-177, 2-amino-6-fluoro-N-(4-(4-((tetrahydro-2H-pyran-4-yl)sulfonyl)piperazin-1-yl)pyridin-3-yl)pyrazolo[1,5-a]pyrimidine-3-carboxamide]",+++ (Compounds with a Cisplatin sensitization value of <0.02 μM are marked with “+++.”)
11,"CS(=O)(=O)N1CCN(c2ccncc2NC(=O)c2c(N)nn3cc(F)cnc23)CC1 [I-N-178, 2-amino-6-fluoro-N-(4-(4-(methylsulfonyl)piperazin-1-yl)pyridin-3-yl)pyrazolo[1,5-a]pyrimidine-3-carboxamide]",+++ (Compounds with a Cisplatin sensitization value of <0.02 μM are marked with “+++.”)
12,"Nc1nn2cc(F)cnc2c1C(=O)Nc1cnccc1N1CCN(S(=O)(=O)C2CCOC2)CC1 (stereo not drawn) [I-N-179, 2-amino-6-fluoro-N-(4-(4-((tetrahydrofuran-3-yl)sulfonyl)piperazin-1-yl)pyridin-3-yl)pyrazolo[1,5-a]pyrimidine-3-carboxamide]",+++ (Compounds with a Cisplatin sensitization value of <0.02 μM are marked with “+++.”)
13,"CN1CCC[C@@H]1C(=O)N1CCN(c2c(F)cncc2NC(=O)c2c(N)nn3cc(F)cnc23)CC1 [I-N-181, (R)-2-amino-6-fluoro-N-(5-fluoro-4-(4-(1-methylpyrrolidine-2-carbonyl)piperazin-1-yl)pyridin-3-yl)pyrazolo[1,5-a]pyrimidine-3-carboxamide]",+++ (Compounds with a Cisplatin sensitization value of <0.02 μM are marked with “+++.”)
14,"Nc1nn2cc(F)cnc2c1C(=O)Nc1cncc(F)c1N1CCN2C(=O)CC[C@@H]2C1 [I-N-182, (R)-2-amino-6-fluoro-N-(5-fluoro-4-(6-oxohexahydropyrrolo[1,2-a]pyrazin-2(1H)-yl)pyridin-3-yl)pyrazolo[1,5-a]pyrimidine-3-carboxamide]",++ (Compounds with a Cisplatin sensitization value >0.02 μM but <0.2 μM are marked with “++.”)
15,"CN1CCOC2(CCN(c3ccncc3NC(=O)c3c(N)nn4cc(F)cnc34)CC2)C1 [I-N-183, 2-amino-6-fluoro-N-(4-(4-methyl-1-oxa-4,9-diazaspiro[5.5]undecan-9-yl)pyridin-3-yl)pyrazolo[1,5-a]pyrimidine-3-carboxamide]",+++ (Compounds with a Cisplatin sensitization value of <0.02 μM are marked with “+++.”)
16,"Nc1nn2cc(F)cnc2c1C(=O)Nc1cncc(F)c1N1CCC(c2nccs2)CC1 [I-N-184, 2-amino-6-fluoro-N-(5-fluoro-4-(4-(thiazol-2-yl)piperidin-1-yl)pyridin-3-yl)pyrazolo[1,5-a]pyrimidine-3-carboxamide]",++ (Compounds with a Cisplatin sensitization value >0.02 μM but <0.2 μM are marked with “++.”)
17,"CCN1CCCC1C(=O)N1CCN(c2c(F)cncc2NC(=O)c2c(N)nn3cc(F)cnc23)CC1 (stereo not drawn) [I-N-185, 2-amino-N-(4-(4-(1-ethylpyrrolidine-2-carbonyl)piperazin-1-yl)-5-fluoropyridin-3-yl)-6-fluoropyrazolo[1,5-a]pyrimidine-3-carboxamide]",++ (Compounds with a Cisplatin sensitization value >0.02 μM but <0.2 μM are marked with “++.”)
18,"Nc1nn2cc(F)cnc2c1C(=O)Nc1cncc(F)c1N1CCN(C(=O)CN2CCCC2)CC1 [I-N-187, 2-amino-6-fluoro-N-(5-fluoro-4-(4-(2-(pyrrolidin-1-yl)acetyl)piperazin-1-yl)pyridin-3-yl)pyrazolo[1,5-a]pyrimidine-3-carboxamide]",+++ (Compounds with a Cisplatin sensitization value of <0.02 μM are marked with “+++.”)
